The values below come from publication PMC7092479, “Antiviral activity of silymarin in comparison with baicalein against EV-A71” (BMC Complementary Medicine and Therapies, 2020).

In brackets after ≈: the same amount, converted by molar mass. Like-named read-outs stand apart in the source and are kept apart here. Bounds are passed on as bounds.

A short description of data set [1]: Cytotoxicity assay (MTS) in RD cells. Conditions: human, CC50 (half maximal cytotoxic concentration), 24 h, MTS assay. As for the experimental part: (§1) CellTiter 96® AQueous One Solution Cell Proliferation MTS [3-(4,5-dimethylthiazol-2-yl)-5-(3-carboxymethoxyphenyl)-2-(4-sulfophenyl)-2H-tetrazolium] assay kit (Promega, Madison, WI, USA) was used to evaluate the cytotoxicity of the three flavonoids according to the manufacturer’s instruction. Briefly, RD or Vero cells were seeded overnight in 96 well plates with a density of 2 × 10^5 cells/mL. Cells were then treated with various concentrations of silymarin (6.25, 12.5, 25, 50,100 and 200 μg/mL), baicalein (1.68, 3.37, 6.75, 13.5, 27, 54 and 108, μg/mL) and baicalin (2.78, 5.57, 11.15, 22.31, 44.63 and 89.26 μg/mL) prepared in maintenance media. RD or Vero cells without test compounds served as a negative control. The plate was further incubated for 24 h at 37 °C. An aliquot of 20 μL of MTS solution was added to each well and the plate was incubated for 1 h at 37 °C. The absorbance was measured at 490 nm with an Infinite 200 Pro Multiplate Reader (Tecan, Männdedorf, Switzerland) (Supplementary Figure S1). The half-maximal cytotoxic concentration (CC50) and 10% cytotoxic concentration (CC10) for each flavonoid were determined using GraphPad Prism software, version 7 (GraphPad Software, Calif, USA).
On the technique in general: Formazan colour is commonly taken as a measure of viable cells.

The test system of data set [2] is RD cells. The data set can be described thus: Cytotoxicity assay (MTS) in RD cells. As for the experimental part:
as §1

The nature of data set [3]: Cytotoxicity assay (MTS) in Vero cells. Conditions: African green monkey, Vero cells. Here is the method: as §1
Another data set deals with Vero cells. The data set can be described thus: Cytotoxicity assay (MTS) in Vero cells. As for the experimental part:
as §1

Data set [4] has as its system EV-A71. Briefly: microbe, parasite or virus in culture. The class given is cell-based, Enterovirus 71 (EV-A71) strain 41 (5865/SIN/000009). Particulars: for inhibition at 54 µg/mL: EVA71, RD, read-out: Inhibition of EV-A71 viral infectivity, virucidal assay. Here is the method:
(§2) The plaque assay was performed using the method described by Tan et al. (2012) with minor modifications. Briefly, 6 well plates with 6 × 10^5 RD cells/mL were prepared and incubated to grow overnight at 37 °C. The supernatants collected from antiviral assays were serially diluted (10-folds) and the cell monolayer was infected with each dilution. The plates were incubated at 37 °C for 1 h. After removal of the inoculum, 1.5–2 mL of 0.9% of high viscosity carboxy methyl cellulose (CMC) (Sigma Aldrich, MO, USA) with 2% FBS in DMEM (overlay media) were added to each well. After incubation for 3 days, the overlaid media was removed. The cells were washed three times with phosphate buffered saline (PBS), fixed with 3.7% formaldehyde and stained with 0.5% crystal violet. The plaques were counted manually against a white background and pictures were taken using the CTL Immunospot® S6 Versa (Cleveland, OH, USA). All experiments were performed as three independent replicates.
(§3) RNA extractions were performed using the QIAamp ViralRNA mini kit (Qiagen, Hilden, Germany) according to the manufacturer’s instructions. TaqMan® Fast virus 1-step master mix (ABI, Carlsbad, Calif, USA) was used to carry out qRT-PCR in the CFX96 TouchTM Real-Time PCR Detection System (Bio-Rad, Calif, USA). The cDNA synthesis was carried out by reverse transcription for 5 min at 50 °C and subsequently amplified for 40 cycles at 95 °C for 3 s, 60 °C for 30 s. A standard graph was plotted using serial dilutions of the standard viral stock. The threshold cycle value (Cq) was calculated using the default setting of the machine. All experiments were performed in triplicates.
RD cells (2 × 10^4/well) were grown overnight in wells of a 96 well plate. The virus was pre-treated with each of the flavonoids for 1 h at MOI of 1 (pfu/ml = 2 × 10^4/0.1 mL). Cells were infected with the pre-treated virus-flavonoid-mixture. The inoculum was allowed to incubate with the RD cells at 37 ° for 1 h. After 1 h, the inoculum was removed, cells were washed with PBS and maintenance media was replaced. After 24 h, the supernatant was collected and infectious viral titers were quantified using the plaque assay. RNA copy number was determined by qRT-PCR [21] [Supplementary Figure S2(a)].

Data set [5] concerns EV-A71. Briefly: Time course assay for virucidal activity. Conditions: 54 μg/mL, 60 min co-incubation with EV-A71 at 37 °C, plaque assay. It is filed as cell-based, Enterovirus 71 (EV-A71) strain 41 (5865/SIN/000009). As for the experimental part: as §2, with “After removal of the inoculum, 1.5–2 mL of 0.9% of high viscosity carboxy methyl cellulose (CMC) (Sigma Aldrich, MO, USA) with 2% FBS in DMEM (overlay media) were added to each well.” left out, “replicates. RD cells (2 × 10^4/well) were grown overnight in wells of a 96 well plate. […] Cells were infected with the pre-treated virus-flavonoid-mixture and allowed to incubate with the RD cells at 37 °C for 1 h. After 1 h, the inoculum was removed, cells were washed with PBS and maintenance media was added. After 24 h, the supernatant was collected and infectious viral titers were quantified using the plaque assay.” for “replicates.”

Data set [6] relates to EV-A71. The data set can be described thus: Cell protection assay (RD cells pre-treated). Conditions: 54 μg/mL; for inhibition at 54 µg/mL: Enterovirus A, EVA71, RD, read-out: Inhibition of EV-A71 viral infectivity, cell protection assay. It is filed as cell-based, Enterovirus 71 (EV-A71) strain 41 (5865/SIN/000009). As for the experimental part: as §2, §3
RD cells (2 × 10^4/well) were seeded overnight in each well within a 96 well plate. Cells were treated with different concentrations of a flavonoid for 1 h at 37 °C. After incubation, flavonoid containing media was removed and cells were washed with PBS. […] The supernatant was collected after 24 h and the infectious viral titers were quantified using the plaque assay. RNA copy number was determined using qRT-PCR [21] […]

For data set [7], the system named is EV-A71. Briefly: Post-infection assay. The class given is cell-based, Enterovirus 71 (EV-A71) strain 41 (5865/SIN/000009). Particulars: added 1 h after RD cells were infected, data not shown. Here is the method:
as §2, with “All experiments were performed as three independent replicates.” left out
RNA extractions were performed using the QIAamp ViralRNA mini kit (Qiagen, Hilden, Germany) according to the manufacturer’s instructions. […] The threshold cycle value (Cq) was calculated using the default setting of the machine. […]
RD cells (2 × 10^4/well) were grown overnight in wells of a 96 well plate. […] After 24 h, the supernatant was collected and infectious viral titers were quantified using the plaque assay. RNA copy number was determined using qRT-PCR [21] […]

Data set [8] relates to EV-A71. The data set can be described thus: microbe, parasite or virus in culture. It is filed as cell-based, Enterovirus 71 (EV-A71) strain 41 (5865/SIN/000009). Conditions: for inhibition at 54 µg/mL: EVA71, 54 μg/mL, read-out: Inhibition of EV-A71 viral infectivity, comprehensive assay. As for the experimental part:
as §2, §3
RD cells (2 × 10^4/well) were grown overnight in wells of a 96 well plate. A monolayer of RD cells was pre-treated with various concentrations of a flavonoid for 1 h and incubated at 37 °C. Simultaneously, the virus at MOI of 1 (pfu/ml = 2 × 10^4/0.1 mL) was pre-treated with the same concentrations of the flavonoid for 1 h at 37 °C. After incubation, flavonoid containing media was removed and the RD cells were washed with PBS. The flavonoid-treated virus was added to the pre-treated RD cells for 1 h at 37 °C. The inoculum was removed, RD cells were washed with PBS and replaced with the maintenance media (DMEM supplemented with 2% FBS). After 24 h, the supernatant was collected and infectious viral titers were quantified using the plaque assay. RNA copy number was determined using qRT-PCR [21] [Supplementary Figure S2(e)].

Data set [9] has as its system EV-A71. Set-up: method as in Zhang et al. (2014) [27]. Conditions: cells treated with 30 μM prior to EV-A71 infection; ref Zhang et al. (2014) [27]; cited from earlier work.
Data set [10] has as its system RD cells. Set-up: method as in Li et al. (2015) [16]. Particulars: ref Li et al. (2015) [16]; cited from earlier work.

The CC50 is the concentration giving 50% cytotoxicity. Usually inhibition stands for the drop in the measured response relative to a control, in per cent. As usually defined, the IC50 is the concentration at which inhibition is half-maximal.

Consider `O=c1cc(-c2ccccc2)oc2cc(O)c(O)c(O)c12` [Baicalein], for which the CC50 at 24 h is 421.5 ± 3.23 µg/mL (≈ 1560 µM) in [1] (extrapolated value, above the tested concentration of 108 μg/mL) and 828.7 ± 0.93 µg/mL (≈ 3070 µM) in data set [3]. Moreover, the “CC10 (10% cytotoxic concentration)” value with RD cells [2] (24 h, MTS assay) was 90.93 ± 3.94 µg/mL (≈ 336 µM); in the data set with RD cells [2] (24 h, MTS assay, listed as baicalein), 90.93 µg/mL (≈ 336 µM). Also, the “Concentration up to which no significant cytotoxic effects were observed” value in the data set with RD cells [2] (24 h incubation) is no more than 54 µg/mL. For the same molecule, the CC10 in the data set on Vero cells (Vero cells, 24 h, MTS assay) came to 148.9 ± 0.25 µg/mL (≈ 551 µM). Further, the “Virucidal Assay SI (CC50/IC50)” value with EV-A71 [4] stood at 13.64. Further, the “Inhibition of EV-A71 viral infectivity, virucidal assay” value in the data set on EV-A71 [4] (54 μg/mL, plaque assay) is reported as 65.0%. Moreover, the inhibition at 54 µg/mL with EV-A71 [4] (Enterovirus A, 54 μg/mL, plaque assay) came out at 64%; with EV-A71 [4] (Enterovirus A, 54 μg/mL, qRT-PCR (RNA copy number)) it was 78.8%; with EV-A71 [6] (plaque assay), 2.2%; with EV-A71 [6] (qRT-PCR), 0%; in the data set with EV-A71 [8] (Enterovirus A, plaque assay) it was 89.4%; with EV-A71 [8] (Enterovirus A, qRT-PCR (RNA copy number)), 83%. Further, the IC50 in the data set on EV-A71 [4] (Enterovirus A, EVA71, plaque assay, RD cells, virus pre-treated 1 h, MOI 1, read-out: Virucidal Assay IC50) is 30.9 ± 5.5 µg/mL (≈ 114 µM); in the data set with EV-A71 [8] (Enterovirus A, EVA71, plaque assay, RD cells and virus both pre-treated 1 h, read-out: Comprehensive Assay IC50), 2.27 ± 4.93 µg/mL (≈ 8.4 µM). Also, in the data set with EV-A71 [5], the “Virucidal effects against EV-A71 (time course)” value was found to be 60%. Moreover, the “Inhibition of EV-A71 viral infectivity, cell protection assay” value in the data set with EV-A71 [6] (plaque assay) is “no inhibition”. Further, in the data set on EV-A71 [7], the “Inhibition of EV-A71 post-infection” value is reported as “non-inhibitory”. Also, the “Comprehensive Assay SI (CC50/IC50)” value in the data set with EV-A71 [8] is given as 185.6. For the same molecule, the “Effect as a prophylactic agent against EV-A71” value in the data set with EV-A71 [9] is reported as “non-effective”.

Consider `O=C(O)[C@H]1O[C@@H](Oc2cc3oc(-c4ccccc4)cc(=O)c3c(O)c2O)[C@H](O)[C@@H](O)[C@@H]1O` [Baicalin, reference compound], for which the results for the CC50 at 24 h in data set [1] and in data set [3] were 42.2 µg/mL (≈ 94.5 µM) and 30.47 ± 0.06 µg/mL (≈ 68.3 µM), respectively. Moreover, the “CC10 (10% cytotoxic concentration)” value was determined as 5.46 ± 5.02 µg/mL (≈ 12.2 µM) with RD cells [2] (24 h, MTS assay) and 5.46 µg/mL (≈ 12.2 µM) in the data set with RD cells [2] (24 h, MTS assay, listed as baicalin). In the data set with RD cells [2] (24 h, MTS assay), the “CC50 (half maximal cytotoxic concentration)” value came to 42.21 ± 4.15 µg/mL (≈ 94.6 µM). In the data set with Vero cells (Vero cells, 24 h, MTS assay), this molecule showed a CC10 of 1.718 ± 0.16 µg/mL (≈ 3.85 µM). Further, in the data set on RD cells [10], the CC50 is 823.53 µg/mL (≈ 1840 µM).

With Silymarin, in the data set on Vero cells, the CC10 stood at 314.2 ± 0.06 µg/mL, the cytotoxic concentration (CC50) was 753 ± 0.17 µg/mL and the “Concentration up to which no significant cytotoxicity was shown” value is no more than 200 µg/mL. Moreover, the “Virucidal Assay SI (CC50/IC50)” value in the data set on EV-A71 [4] was found to be 10.53.
